{
  "source": "patent US6696607B2",
  "about": "(priority 2000, dated 2004)",
  "tested_on": "Phytophthora infestans",
  "assay_type": "in vivo",
  "details": "63 ppm active ingredient; tomato leaves infected one week after application; assessed after 6 days; untreated plants 100%",
  "data": [
    {"smiles": "CO/N=C(/C(=O)NCCc1ccc(OC)c(OC)c1)c1ccc(Cl)cc1", "note": "[comparative active ingredient]", "values": [
      {"measurement": "disease level", "result": 40, "unit": "%"}
    ]}
  ]
}
